Test results from PMC3759295 (Toxicology letters, 2013).

Test system: CYP1A1 mRNA in primary human hepatocytes
Assay: CYP1A1 mRNA expression in primary human hepatocytes
Format: cell-based
[1] = hepatocyte culture LH45, 10 µM, 24 h
[2] = hepatocyte culture LH45, 50 µM, 24 h
[3] = hepatocyte culture LH46, 10 µM, 24 h
[4] = hepatocyte culture LH46, 50 µM, 24 h
[5] = hepatocyte culture LH47, 50 µM, 24 h
[6] = hepatocyte culture LH48 (so in the source), 50 µM, 24 h

Row | SMILES | CYP1A1 mRNA fold induction over the vehicle-treated cells, LH45 (10 µM) [fold] | CYP1A1 mRNA fold induction over the vehicle-treated cells, LH46 (10 µM) [fold] | CYP1A1 mRNA fold induction over the vehicle-treated cells, LH45 (50 µM) [fold] | CYP1A1 mRNA fold induction over the vehicle-treated cells, LH46 (50 µM) [fold] | CYP1A1 mRNA fold induction over the vehicle-treated cells, LH47 (50 µM) [fold] | CYP1A1 mRNA fold induction over the vehicle-treated cells, LH48 (50 µM) [fold] | CYP1A1 mRNA fold induction over the vehicle-treated cells, LH45 [1] [fold] | CYP1A1 mRNA fold induction over the vehicle-treated cells, LH45 [2] [fold] | CYP1A1 mRNA fold induction over the vehicle-treated cells, LH46 [3] [fold] | CYP1A1 mRNA fold induction over the vehicle-treated cells, LH46 [4] [fold] | CYP1A1 mRNA fold induction over the vehicle-treated cells, LH47 [5] [fold] | CYP1A1 mRNA fold induction over the vehicle-treated cells, LH48 [6] [fold]
1 | C[C@@H]1O[C@@H](OC[C@H]2O[C@@H](Oc3cc4c(O)cc(O)cc4[o+]c3-c3ccc(O)c(O)c3)[C@H](O)[C@@H](O)[C@@H]2O)[C@H](O)[C@H](O)[C@H]1O.[Cl-] [CYA-2, cyanidin-3-O-rutinoside chloride] | 2.34 ± 0.28 | 0.55 ± 0.03 | 0.69 ± 0.25 | 0.91 ± 0.04 | 0.57 ± 0.09 | 0.07 ± 0.02 | – | – | – | – | – | –
2 | OC[C@H]1O[C@@H](O[C@H]2[C@@H](Oc3cc4c(O)cc(O)cc4[o+]c3-c3ccc(O)c(O)c3)O[C@H](CO)[C@@H](O)[C@@H]2O)[C@H](O)[C@@H](O)[C@@H]1O.[Cl-] [CYA-4, cyanidin-3-O-sophoroside chloride] | 1.31 ± 0.25 | 2.97 ± 0.39 | 0.46 ± 0.03 | 0.28 ± 0.05 | 0.51 ± 0.16 | 0.05 ± 0.02 | – | – | – | – | – | –
3 | Oc1cc(O)c2cc(O[C@@H]3OC[C@H](O)[C@H](O)[C@H]3O)c(-c3ccc(O)c(O)c3)[o+]c2c1.[Cl-] [CYA-5, cyanidin-3-O-arabinoside chloride] | 0.69 ± 0.06 | 0.67 ± 0.07 | 1.16 ± 0.17 | 0.61 ± 0.08 | 0.34 ± 0.11 | 0.07 ± 0.01 | – | – | – | – | – | –
4 | C[C@@H]1O[C@@H](Oc2cc3c(O)cc(O)cc3[o+]c2-c2ccc(O)c(O)c2)[C@H](O)[C@H](O)[C@H]1O.[Cl-] [CYA-6, cyanidin-3-O-rhamnoside chloride] | 0.77 ± 0.12 | 1.19 ± 0.14 | 0.73 ± 0.04 | 1.36 ± 0.03 | 0.31 ±0.03 | 0.07 ± 0.00 | – | – | – | – | – | –
5 | OC[C@H]1O[C@@H](Oc2cc3c(O)cc(O)cc3[o+]c2-c2ccc(O)c(O)c2)[C@H](O)[C@@H](O)[C@H]1O.[Cl-] [CYA-7, cyanidin-3-O-galactoside chloride] | 0.65 ± 0.11 | 2.62 ± 0.41 | 0.34 ± 0.06 | 1.85 ± 0.09 | 0.25 ± 0.02 | 0.05 ± 0.02 | – | – | – | – | – | –
6 | OC[C@H]1O[C@@H](Oc2cc3c(O)cc(O)cc3[o+]c2-c2ccc(O)c(O)c2)[C@H](O[C@@H]2OC[C@@H](O)[C@H](O)[C@H]2O)[C@@H](O)[C@@H]1O.[Cl-] [CYA-8, cyanidin-3-O-sambubioside chloride] | 0.26 ± 0.01 | 1.48 ± 1.14 | 0.20 ± 0.04 | 1.72 ± 0.72 | 2.44 | 0.02 ± 0.00 | – | – | – | – | – | –
7 | OC[C@H]1O[C@@H](Oc2cc3c(O)cc(O)cc3[o+]c2-c2ccc(O)c(O)c2)[C@H](O[C@@H]2OC[C@@H](O)[C@H](O)[C@H]2O)[C@@H](O)[C@H]1O.[Cl-] [CYA-9, cyanidin-3-O-lathyroside chloride] | 0.32 ± 0.12 | 0.91 ± 0.11 | 0.61 ± 0.05 | 1.77 ± 0.49 | 0.11 ± 0.17 | 0.09 ± 0.05 | – | – | – | – | – | –
8 | OC[C@H]1O[C@@H](Oc2cc3c(O)cc(O)cc3[o+]c2-c2cc(O)c(O)c(O)c2)[C@H](O)[C@@H](O)[C@@H]1O.[Cl-] [DEL-1, delphinidin-3-O-glucoside chloride] | – | – | – | – | – | – | 1.80 ± 0.11 | 1.50 ± 0.21 | 1.99 ± 0.12 | 0.80 ± 0.07 | 1.01 ± 0.12 | 0.01 ± 0.00
9 | C[C@@H]1O[C@@H](OC[C@H]2O[C@@H](Oc3cc4c(O)cc(O)cc4[o+]c3-c3cc(O)c(O)c(O)c3)[C@H](O)[C@@H](O)[C@@H]2O)[C@H](O)[C@H](O)[C@H]1O.[Cl-] [DEL-2, delphinidin-3-O-rutinoside chloride] | – | – | – | – | – | – | 1.53 ± 0.36 | 0.53 ± 0.11 | 1.34 ± 0.10 | 0.68 ± 0.01 | 0.23 ± 0.05 | 0.02 ± 0.01
10 | OCC1OC(Oc2cc3c(OC4OC(CO)C(O)C(O)C4O)cc(O)cc3[o+]c2-c2cc(O)c(O)c(O)c2)C(O)C(O)C1O.[Cl-] (stereo not drawn) [DEL-3, delphinidin-3,5-di-O-glucoside chloride] | – | – | – | – | – | – | 0.82 ± 0.02 | 1.70 ± 3.26 | 0.85 ± 0.06 | 1.14 ± 0.21 | 0.39 ± 0.06 | 0.02 ± 0.01
11 | OC[C@H]1O[C@@H](Oc2cc3c(O)cc(O)cc3[o+]c2-c2cc(O)c(O)c(O)c2)[C@H](O[C@@H]2OC[C@@H](O)[C@H](O)[C@H]2O)[C@@H](O)[C@@H]1O.[Cl-] [DEL-4, delphinidin-3-O-sambubioside chloride] | – | – | – | – | – | – | 0.26 ± 0.21 | 0.34 ± 0.09 | 1.11 ± 0.20 | 1.31 ± 0.05 | 0.21 ± 0.26 | 0.07 ± 0.01
12 | C[C@@H]1O[C@@H](Oc2cc3c(O)cc(O)cc3[o+]c2-c2cc(O)c(O)c(O)c2)[C@H](O)[C@H](O)[C@H]1O.[Cl-] [DEL-5, delphinidin-3-O-rhamnoside chloride] | – | – | – | – | – | – | 0.48 ± 0.01 | 0.40 ± 0.09 | 0.98 ± 0.15 | 1.19 ± 0.18 | 0.26 ± 0.01 | 0.01 ± 0.01
13 | COc1cc(-c2[o+]c3cc(O)cc(O[C@@H]4O[C@H](CO)[C@@H](O)[C@H](O)[C@H]4O)c3cc2O[C@@H]2O[C@H](CO)[C@@H](O)[C@H](O)[C@H]2O)cc(OC)c1O.[Cl-] [MAL-2, malvidin-3,5-di-O-glucoside chloride] | – | – | – | – | – | – | 1.14 ± 0.28 | 0.44 ± 0.01 | 1.72 ± 0.39 | 1.64 ± 0.38 | 0.56 ± 0.07 | 0.93 ± 0.09
14 | COc1cc(-c2[o+]c3cc(O)cc(O)c3cc2O[C@@H]2O[C@H](CO)[C@H](O)[C@H](O)[C@H]2O)cc(OC)c1O.[Cl-] [MAL-3, malvidin-3-O-galactoside chloride] | – | – | – | – | – | – | 0.12 ± 0.00 | 0.28 ± 0.04 | 0.87 ± 0.02 | 1.32 ± 0.05 | 0.54 ± 0.02 | 0.33 ± 0.02
15 | OC[C@H]1O[C@@H](Oc2cc3c(O[C@@H]4O[C@H](CO)[C@@H](O)[C@H](O)[C@H]4O)cc(O)cc3[o+]c2-c2ccc(O)cc2)[C@H](O)[C@@H](O)[C@@H]1O [PEL-1, pelargonidin-3,5-di-O-glucoside chloride] | 0.70 ± 0.17 | 1.49 ± 0.10 | 1.17 ± 0.14 | 2.21 ± 0.66 | 0.59 ± 0.52 | 0.98 ± 0.27 | – | – | – | – | – | –
16 | COc1cc(-c2[o+]c3cc(O)cc(O)c3cc2O[C@@H]2O[C@H](CO)[C@@H](O)[C@H](O)[C@H]2O)ccc1O.[Cl-] [PEO-1, peonidin-3-O-glucoside chloride] | – | – | – | – | – | – | 0.21 ± 0.03 | 0.80 ± 0.22 | 2.14 ± 0.18 | 2.48 ± 0.57 | 0.51 ± 0.07 | 0.08 ± 0.03
